The values below come from ChEMBL document CHEMBL3585282, “Discovery of Highly Isoform Selective Thiazolopiperidine Inhibitors of Phosphoinositide 3-Kinase γ” (J Med Chem, 2015).

Values after ≈ are worked out from the molar mass of the structure shown.

Series [1] can be described thus: Stability in rat liver microsomes assessed as compound remaining at 5 uM in presence of NADPH after 30 mins by LC-MS/MS method. It is filed as ADME. As to conditions: read-out: Stability.
A short description of series [2]: Stability in dog liver microsomes assessed as compound remaining at 5 uM in presence of NADPH after 30 mins by LC-MS/MS method. It is filed as ADME, Canis lupus familiaris. As to conditions: read-out: Stability.
Series [3] is described as follows: Stability in human liver microsomes assessed as compound remaining at 5 uM in presence of NADPH after 30 mins by LC-MS/MS method. It is filed as ADME. The following applies: read-out: Stability.
Series [4] is described as follows: Thermodynamic solubility in FaSSIF at pH 6.5 at 5 mg incubated for 48 hrs by HPLC method. As to conditions: read-out: Therm_solubility. Type of series: physicochemical.
Series [5] is described as follows: Thermodynamic solubility in water at 5 mg incubated for 48 hrs by HPLC method. The following applies: read-out: Therm_solubility. Type of series: physicochemical.

Consider `COc1cc(N2CCc3nc(NC(=O)NCCc4cn(CC(F)F)cn4)sc3C2)cnc1Cl`, for which the results for the remaining at 0.5 h, 5 µM in series [1], in series [2] and in series [3] were 100%, 84% and 61%, respectively.
Take `COc1cncc(N2CCc3nc(NC(C)=O)sc3C2)c1`: the solubility thermodynamic at 48 h in series [4] was 9.4 µg/mL (≈ 30.9 µM); in series [5] it was 12.1 µg/mL (≈ 39.8 µM).
